# US7163953B2, “Benzylether derivatives” (Hoffmann-La Roche Inc., priority 2004, dated 2007)
# Molecular target: T1, HER-2 (Homo sapiens, UniProt P04626)
# T1 construct: endogenous in cells; host or cells: Calu-3 (human non-small-cell lung cancer, ATCC HTB-55)
# Assay: Inhibition of HER-2 phosphorylation in Calu-3 tumor cell line
# Assay type: cell-based
# Conditions: compound concentration 1 μM; Calu-3 cells, 16 h incubation; pY 1248 in HER-2; relative to DMSO control; read-out: Percent inhibition of HER-2-phosphorylation
# Experimental: Inhibition of HER-2 Phosphorylation in Calu-3 Tumor Cell Line
# 2×10^5 Calu-3 cells (Non-Small-Cell Lung Cancer cells, ATTC HTB-55) per well were plated in a 12-well plate. After 4 days cells were starved for 16 h in Dulbecco's Modified Eagle Medium (DMEM)/0.5% Fetal Calf Serum (FCS)/1% Glutamine. During this 16 h period cells were incubated with a solution of the test compound in dimethylsulfoxide (DMSO), so that the final concentration of the compound is 1 μM and the final volume of DMSO is 0.5%. […] Cell lysates were analyzed on a Sodium Dodecyl Sulfate Polyacrylamide Gel Electrophoresis (SDS PAGE) and after transfer to a nitrocellulose membrane detected with an antibody specifically recognizing the pY 1248 in HER-2 (phosphorylated tyrosine residue 1248 of human […]). After incubation with an anti rabbit antibody coupled to POD (peroxidase available from Biorad, Munich, Germany) signals were detected by chemiluminescence (ECL, Amersham). Inhibition of HER-2 phosphorylation is calculated as a percentage of the control, which is treated with DMSO only. The percentage of the inhibition is calculated according to the following formula: Inhibition in %=100−(Phosphorylated-HER2-Signal of Test Sample* 100/Phosphorylated-HER2-Signal DMSO-control).
# T1 sequence (P04626 23-1255): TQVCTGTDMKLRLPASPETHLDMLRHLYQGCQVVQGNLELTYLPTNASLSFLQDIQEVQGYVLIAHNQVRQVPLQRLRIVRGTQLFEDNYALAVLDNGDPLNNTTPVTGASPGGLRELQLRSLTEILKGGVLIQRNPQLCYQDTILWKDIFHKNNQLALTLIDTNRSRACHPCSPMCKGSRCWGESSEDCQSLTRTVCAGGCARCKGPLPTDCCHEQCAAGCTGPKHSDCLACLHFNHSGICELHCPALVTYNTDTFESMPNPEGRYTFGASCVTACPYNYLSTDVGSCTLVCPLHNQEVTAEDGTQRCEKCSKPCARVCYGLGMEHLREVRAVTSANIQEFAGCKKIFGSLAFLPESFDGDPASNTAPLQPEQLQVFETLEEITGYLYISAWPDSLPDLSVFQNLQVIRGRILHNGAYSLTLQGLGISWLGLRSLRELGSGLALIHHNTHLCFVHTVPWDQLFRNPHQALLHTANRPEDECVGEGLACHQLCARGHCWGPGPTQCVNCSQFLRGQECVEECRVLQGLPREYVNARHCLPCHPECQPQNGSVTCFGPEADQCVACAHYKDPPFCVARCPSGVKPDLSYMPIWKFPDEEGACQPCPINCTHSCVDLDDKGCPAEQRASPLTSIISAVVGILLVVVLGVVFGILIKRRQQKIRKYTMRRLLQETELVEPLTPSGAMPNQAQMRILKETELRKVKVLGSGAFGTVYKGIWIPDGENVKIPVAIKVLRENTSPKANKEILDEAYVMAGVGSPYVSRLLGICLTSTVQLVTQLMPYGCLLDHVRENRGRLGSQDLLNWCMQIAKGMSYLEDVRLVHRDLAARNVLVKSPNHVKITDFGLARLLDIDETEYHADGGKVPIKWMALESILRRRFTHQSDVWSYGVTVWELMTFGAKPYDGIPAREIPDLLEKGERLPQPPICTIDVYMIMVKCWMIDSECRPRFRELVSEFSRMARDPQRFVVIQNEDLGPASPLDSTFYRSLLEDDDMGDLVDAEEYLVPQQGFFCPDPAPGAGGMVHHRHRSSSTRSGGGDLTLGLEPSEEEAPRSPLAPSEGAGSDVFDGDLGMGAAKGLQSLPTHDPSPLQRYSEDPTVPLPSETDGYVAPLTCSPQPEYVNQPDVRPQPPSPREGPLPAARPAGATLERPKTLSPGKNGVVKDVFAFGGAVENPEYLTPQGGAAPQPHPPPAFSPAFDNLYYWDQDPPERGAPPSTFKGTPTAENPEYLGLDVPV
row,Compound,inhibition at 1 µM [%]
1,"Fc1cc(Cl)ccc1/C=C/c1nc(COc2ccc(COCCn3ccnn3)cc2)co1 [Example 1, 1-[2-(4-{2-[2-(E)-(4-Chloro-2-fluoro-phenyl)-vinyl]-oxazol-4-ylmethoxy}-benzyloxy)-ethyl]-1H-[1,2,3]triazole]",65 to 80
2,"Clc1ccc(/C=C/c2nc(COc3ccc(COCCn4ccnn4)cc3)co2)cc1 [Example 2, 1-[2-(4-{2-[2-(E)-(4-Chloro-phenyl)-vinyl]-oxazol-4-ylmethoxy}-benzyloxy)-ethyl]-1H-[1,2,3]triazole]",> 80
